According to patent US11299487B2, “Compounds and compositions as modulators of TLR signaling” (Neuropore Therapies, Inc., priority 2019, dated 2022):
Like-named read-outs stand apart in the source and are kept apart here.

What was measured:
Format in all cases: cell-based
[1] = molecular target: T1, human TLR2 (Homo sapiens, UniProt O60603); assay: HEK-Blue hTLR2 antagonism assay (SEAP reporter) with agonist Pam3CSK4 (TLR1/2 agonist); conditions: HEK-Blue hTLR2 cells, ~3×EC50 Pam3CSK4, 18 h, SEAP OD 655 nm, 8-point dilutions
T1 construct: host or cells: HEK-Blue hTLR2 (HEK-293)
T1 sequence (O60603 21-784): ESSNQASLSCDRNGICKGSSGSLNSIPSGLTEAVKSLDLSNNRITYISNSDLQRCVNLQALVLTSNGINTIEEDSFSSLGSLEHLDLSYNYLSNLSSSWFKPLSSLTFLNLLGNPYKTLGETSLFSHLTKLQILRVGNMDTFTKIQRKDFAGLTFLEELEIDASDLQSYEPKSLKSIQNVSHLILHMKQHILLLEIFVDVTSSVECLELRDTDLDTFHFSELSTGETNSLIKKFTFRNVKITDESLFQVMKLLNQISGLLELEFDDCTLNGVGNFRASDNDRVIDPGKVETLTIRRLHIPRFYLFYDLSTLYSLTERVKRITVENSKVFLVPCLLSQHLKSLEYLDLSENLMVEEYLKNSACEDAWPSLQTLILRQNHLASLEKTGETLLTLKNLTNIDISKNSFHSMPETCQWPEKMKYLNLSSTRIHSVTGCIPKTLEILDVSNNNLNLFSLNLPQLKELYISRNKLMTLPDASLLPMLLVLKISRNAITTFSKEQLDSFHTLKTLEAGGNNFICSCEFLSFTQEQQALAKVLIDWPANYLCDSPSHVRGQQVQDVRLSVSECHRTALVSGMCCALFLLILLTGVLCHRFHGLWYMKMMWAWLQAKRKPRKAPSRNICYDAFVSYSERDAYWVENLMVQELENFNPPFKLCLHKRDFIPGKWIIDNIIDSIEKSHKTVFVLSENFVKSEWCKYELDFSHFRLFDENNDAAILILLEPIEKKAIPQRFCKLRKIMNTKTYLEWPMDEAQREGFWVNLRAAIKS

[2] = molecular target: T1, human TLR2; assay: HEK-Blue hTLR2 antagonism assay (SEAP reporter) with agonist Pam2CSK4 (TLR2/6 agonist); conditions: HEK-Blue hTLR2 cells, ~3×EC50 Pam2CSK4, 18 h, SEAP OD 655 nm, 8-point dilutions
[3] = molecular target: T2, human TLR9 (Homo sapiens, UniProt Q9NR96); assay: HEK-Blue hTLR9 assay (SEAP reporter) with agonist ODN 2006; conditions: HEK-Blue hTLR9 cells, ~3×EC50 ODN 2006, 18 h, exact values 8-point dilutions, approximate (~ or <) 4-point dilutions, read-out: ~IC50 (μM) with ODN2006
T2 construct: host or cells: HEK-Blue hTLR9 (HEK-293)
T2 sequence (Q9NR96 26-1032): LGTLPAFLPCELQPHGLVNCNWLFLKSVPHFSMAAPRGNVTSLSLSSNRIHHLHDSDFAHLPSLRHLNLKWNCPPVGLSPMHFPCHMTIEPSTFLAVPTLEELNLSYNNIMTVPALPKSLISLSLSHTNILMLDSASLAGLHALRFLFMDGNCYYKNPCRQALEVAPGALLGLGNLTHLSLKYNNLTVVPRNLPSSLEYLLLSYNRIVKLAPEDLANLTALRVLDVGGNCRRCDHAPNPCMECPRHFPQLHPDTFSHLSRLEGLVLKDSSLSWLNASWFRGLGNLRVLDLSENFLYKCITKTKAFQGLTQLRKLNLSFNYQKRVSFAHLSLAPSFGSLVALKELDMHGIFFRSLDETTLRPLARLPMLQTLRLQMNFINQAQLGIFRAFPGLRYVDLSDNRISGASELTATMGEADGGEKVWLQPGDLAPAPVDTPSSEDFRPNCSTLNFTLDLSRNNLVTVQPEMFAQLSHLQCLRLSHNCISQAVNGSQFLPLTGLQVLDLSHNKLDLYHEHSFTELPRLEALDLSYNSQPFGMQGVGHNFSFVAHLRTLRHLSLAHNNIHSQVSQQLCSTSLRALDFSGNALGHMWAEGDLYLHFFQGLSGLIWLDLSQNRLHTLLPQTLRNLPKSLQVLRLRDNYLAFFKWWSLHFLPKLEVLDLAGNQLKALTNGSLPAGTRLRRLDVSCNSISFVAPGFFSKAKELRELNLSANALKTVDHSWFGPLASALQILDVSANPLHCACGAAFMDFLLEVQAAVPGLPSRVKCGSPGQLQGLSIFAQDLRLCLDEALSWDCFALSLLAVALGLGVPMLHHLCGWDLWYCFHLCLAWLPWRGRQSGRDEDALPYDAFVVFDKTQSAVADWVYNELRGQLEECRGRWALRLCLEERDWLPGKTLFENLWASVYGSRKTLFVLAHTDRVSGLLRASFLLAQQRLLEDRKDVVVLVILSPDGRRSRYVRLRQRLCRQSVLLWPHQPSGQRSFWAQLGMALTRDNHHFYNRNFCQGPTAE
Protocol: Synthetic ODNs (ODN 2006 (ODN7909), class B CpG oligonucleotide, TLR9 agonist) was obtained from InvivoGen and was dissolved in endotoxin-free water to a concentration 500 μM, vortexed until complete solubilization, and stored in aliquots at −20° C. Prior to addition to cells, an aliquot of the dissolved ligand was vortexed shortly and then was diluted in medium to 50 μM. The EC50 of the agonist for each assay run was determined by using 3-fold dilutions from the starting concentration 10 μM.
Test compounds were solubilized fresh to 10-20 mM stocks in DMSO and sonicated for 5-10 minutes in a water bath sonicator. Serial dilutions were prepared in DMSO, and then diluted in medium. The final concentration of DMSO used in the assay was 1%.
HEK-Blue hTLR9 reporter cells (InvivoGen) are HEK-293 cells stably expressing both the human TLR9 gene and a secreted embryonic alkaline phosphatase (SEAP) reporter construct downstream of NFκB promotor sites. HEK-Blue hTLR9 cells were cultured according to manufacturer's protocol using Dulbecco's Modified Eagle Medium (DMEM; Gibco) containing 1× GlutaMax (Gibco), 10% heat-inactivated Fetal Bovine Serum (Gibco), Pen-Strep (50 U/mL penicillin, 50 μg/mL streptomycin, Gibco), 100 μg/mL Normocin (InvivoGen), and the selective antibiotics, 10 μg/mL Blasticidin (InvivoGen), and 100 μg/mL Zeocin (InvivoGen). Quanti-Blue reagent (InvivoGen) for detection and quantification of secreted alkaline phosphatase was dissolved in 100 mL of endotoxin-free water, warmed to 37° C. for 30 minutes and then filtered using a 0.2 μm membrane.
On day 1, 50 μL of each test compound dilution in duplicates or a vehicle control was added to each well of a 96-well plate followed by addition of 150 μL of HEK-Blue hTLR9 cell suspension (1×10^5 cells/well) and incubated at 37° C./5% CO2 for 2 h. Next, 50 μL of an approximate 3×EC50 concentration of TLR9 agonist, ODN 2006, was added to the wells containing test compounds or the vehicle control. The plates were then incubated at 37° C./5% CO2 for 18 h. For each assay run, vehicle-treated HEK-Blue hTLR9 cells were treated with serial dilutions of agonist to determine EC50 values for the respective run.
On day 2, secreted alkaline phosphatase (SEAP) activity was detected in cell culture supernatants. In brief, 30 μL was collected from each well and transferred to a 96-well plate. Next, 200 μL of Quanti-Blue detection reagent was added to each well. Plates were incubated at 37° C. for 60 min. and SEAP activity was assessed by spectrophotometer OD reading at 655 nm. Table A and Table B show the activities of the compounds tested in HEK-Blue hTLR9 cells against ODN 2006. The activities of the compounds against ODN 2006 are presented as IC50 values which were defined as concentrations of the compounds where percent inhibition of the signal induced by agonist is equal to 50. Exact IC50 values were calculated based on 8-point dilutions for each compound. Approximate IC50 values (˜ or <) were calculated based on 4-point dilutions for each compound.

SMILES	IC50 ([1]; Table A)	IC50 ([2]; Table A)	IC50 ([3]; Table A)	IC50 ([1]; Table B)	IC50 ([2]; Table B)	IC50 ([3]; Table B)
O=Cc1cc(-c2cn(-c3ccc(N4CCCC4)cc3)nn2)cc(F)c1O [Compound A43, 3-fluoro-2-hydroxy-5-(1-(4-(pyrrolidin-1-yl)phenyl)-1H-1,2,3-triazol-4-yl)benzaldehyde]	1.1 µM	1.1 µM	< 1.2 µM	–	–	–
O=Cc1cc(-c2cnn(-c3ccc(N4CCCC4)cc3)c2)cc(F)c1O [Compound A19, 3-fluoro-2-hydroxy-5-(1-(4-(pyrrolidin-1-yl)phenyl)-1H-pyrazol-4-yl)benzaldehyde]	0.5 µM	0.5 µM	< 1.2 µM	–	–	–
Oc1c(F)cc(-c2cnn(-c3ccccc3)c2)cc1Cl [Compound A15, 2-chloro-6-fluoro-4-(1-phenyl-1H-pyrazol-4-yl)phenol]	> 100 µM	> 100 µM	> 33 µM	–	–	–
O=Cc1cc(C(=O)Nc2ccc(N3CCC(F)(F)CC3)cc2)cc(F)c1O [Compound B68, N-(4-(4,4-difluoropiperidin-1-yl)phenyl)-3-fluoro-5-formyl-4-hydroxybenzamide]	–	–	–	1 µM	3.5 µM	< 1.2 µM
O=Cc1cc(-c2csc(-c3ccc(N4CCCC4)cc3)c2)cc(F)c1O [Compound A52, 3-fluoro-2-hydroxy-5-(5-(4-(pyrrolidin-1-yl)phenyl)thiophen-3-yl)benzaldehyde]	0.2 µM	0.7 µM	< 1.2 µM	–	–	–
O=Cc1cc(-c2cc(-c3ccc(N4CCCC4)cc3)cs2)cc(F)c1O [Compound A51, 3-fluoro-2-hydroxy-5-(4-(4-(pyrrolidin-1-yl)phenyl)thiophen-2-yl)benzaldehyde]	0.7 µM	1.7 µM	< 1.2 µM	–	–	–
Cc1cc(-c2cnn(-c3ccccc3)c2)cc(O)c1F [Compound A14, 2-fluoro-3-methyl-5-(1-phenyl-1H-pyrazol-4-yl)phenol]	42.6 µM	42.2 µM	> 33 µM	–	–	–
O=Cc1cc(-c2cn(-c3ccc(N4CCCC4)cc3)cn2)cc(F)c1O [Compound A47, 3-fluoro-2-hydroxy-5-(1-(4-(pyrrolidin-1-yl)phenyl)-1H-imidazol-4-yl)benzaldehyde]	1.3 µM	2.3 µM	< 1.2 µM	–	–	–
COc1cc(C#Cc2ccc(N3CCCC3)cc2)cc(O)c1C=O [Compound B7, 2-hydroxy-6-methoxy-4-((4-(pyrrolidin-1-yl)phenyl)ethynyl)benzaldehyde]	–	–	–	20.8 µM	35.7 µM	> 33 µM
O=Cc1cc(-c2nc(-c3ccccc3)ns2)cc(F)c1O [Compound A95, 3-fluoro-2-hydroxy-5-(3-phenyl-1,2,4-thiadiazol-5-yl)benzaldehyde]	2.3 µM	3 µM	~1.4 µM	–	–	–
O=Cc1cc(C(=O)Nc2ccc(N3C[C@H]4CCC[C@H]4C3)cc2)cc(F)c1O [Compound B76, 3-fluoro-5-formyl-N-(4-((3aR,6aS)-hexahydrocyclopenta[c]pyrrol-2(1H)-yl)phenyl)-4-hydroxybenzamide]	–	–	–	0.6 µM	1.2 µM	< 1.2 µM
O=Cc1cc(-n2cc(-c3ccc(N4CCCC4)cc3)nn2)cc(F)c1O [Compound A42, 3-fluoro-2-hydroxy-5-(4-(4-(pyrrolidin-1-yl)phenyl)-1H-1,2,3-triazol-1-yl)benzaldehyde]	0.3 µM	0.4 µM	0.1 µM	–	–	–
O=Cc1cc(-c2cnn(-c3cccc(N4CCCC4)c3)c2)cc(F)c1O [Compound A22, 3-fluoro-2-hydroxy-5-(1-(3-(pyrrolidin-1-yl)phenyl)-1H-pyrazol-4-yl)benzaldehyde]	0.9 µM	0.9 µM	> 10 µM	–	–	–
COc1cc(-c2cnn(-c3ccccc3)c2)cc(O)c1F [Compound A16, 2-fluoro-3-methoxy-5-(1-phenyl-1H-pyrazol-4-yl)phenol]	> 100 µM	> 100 µM	> 33 µM	–	–	–
O=Cc1cc(C(=O)Nc2ccc(N3CC4CC4C3)cc2)cc(F)c1O (stereo not drawn) [Compound B74, N-(4-(3-azabicyclo[3.1.0]hexan-3-yl)phenyl)-3-fluoro-5-formyl-4-hydroxybenzamide]	–	–	–	0.8 µM	1.6 µM	< 1.2 µM
Cc1cc(-c2cnn(-c3ccccc3)c2)cc(C#N)c1O [Compound A12, 2-hydroxy-3-methyl-5-(1-phenyl-1H-pyrazol-4-yl)benzonitrile]	> 100 µM	> 100 µM	> 33 µM	–	–	–
O=Cc1cc(-c2nc(-c3ccccc3)n[nH]2)cc(F)c1O [Compound A96, 3-fluoro-2-hydroxy-5-(3-phenyl-1H-1,2,4-triazol-5-yl)benzaldehyde]	8.8 µM	12.1 µM	~6.3 µM	–	–	–
O=Cc1cc(C(=O)Nc2ccc(C(F)(F)F)c(Cl)c2)cc(F)c1O [Compound B14, N-(3-Chloro-4-(trifluoromethyl)phenyl)-3-fluoro-5-formyl-4-hydroxybenzamide]	–	–	–	1.5 µM	1.3 µM	> 33 µM
O=Cc1cc(-c2ccn(-c3ccccc3)n2)cc(F)c1O [Compound A26, 3-fluoro-2-hydroxy-5-(1-phenyl-1H-pyrazol-3-yl)benzaldehyde]	2.7 µM	2.9 µM	~3 µM	–	–	–
CC1(C)CN(c2ccc(NC(=O)c3cc(F)c(O)c(C=O)c3)cn2)c2ccccc21 [Compound B87, N-(6-(3,3-dimethylindolin-1-yl)pyridin-3-yl)-3-fluoro-5-formyl-4-hydroxybenzamide]	–	–	–	0.4 µM	0.5 µM	0.1 µM
O=Cc1cc(C(=O)Nc2ccc(N3CC4(CCC4)C3)cc2)cc(F)c1O [Compound B77, N-(4-(2-azaspiro[3.3]heptan-2-yl)phenyl)-3-fluoro-5-formyl-4-hydroxybenzamide]	–	–	–	0.3 µM	0.6 µM	< 1.2 µM
